Where no end group is shown, it is not given here.
Experiments:
[1] = test system: Interleukin-2 (IL-2); assay: Th1/Th2 cytokine profiling assay, IL-2; type: cell-based, mouse; details: 10 micrograms per ml; Ovalbumin-restimulated Balb/c spleen cells, 72 hours
Description: (§1) The Balb/c mice (originated in 1923, it is a popular strain and is used in many different research disciplines. Also classified as an inbred from the production of 20 size) were immunized on Days 1, 15, and 29 with Ovalbumin (Ovalbumin is the main protein found in egg white, commonly used to stimulate an immunological reaction in test animals) in PBS (5 micrograms/injection). On day 50, spleens of the mice were harvested (3 weeks after last boost with Ovalbumin). Cells were cultured (2×10^5/well in triplicate) and incubated with culture medium or test peptides—10 micrograms per ml—for 30 min. Thereafter, additional Ovalbumin was added to the cells at 10 micrograms/ml for in vitro restimulation of the cells. 72 hours later, cell supernatants were harvested and assayed using the Becton Dickinson Mouse Th1/Th2 Cytokine CBA Kit. This kit can be used to measure Interleukin-2 (IL-2), Interleukin-4 (IL-4), Interleukin-5 (IL-5), Interferon-γ (IFN-γ), and Tumor Necrosis Factor-a (TNF-a) protein levels in a single sample. The kit performance has been optimized for analysis of physiologically relevant concentrations (μg/ml levels) of specific cytokine proteins in tissue culture supernatants and serum samples.

[2] = test system: HUVEC; assay: Endothelial tube formation assay; type: cell-based, human; details: 10 micrograms per ml, 20 hours
Excerpt: Positive control was vehicle only.

[3] = test system: Interleukin-4 (IL-4); assay: Th1/Th2 cytokine profiling assay, IL-4; type: cell-based, mouse; details: 10 micrograms per ml; Ovalbumin-restimulated Balb/c spleen cells, 72 hours
Description: as §1

[4] = test system: Tumor Necrosis Factor-a (TNF-a); assay: Th1/Th2 cytokine profiling assay, TNF-alpha; type: cell-based, mouse; details: 10 micrograms per ml; Ovalbumin-restimulated Balb/c spleen cells, 72 hours
Description: as §1

[5] = test system: Interferon-γ (IFN-γ); assay: Th1/Th2 cytokine profiling assay, IFN-γ; type: cell-based, mouse; details: 10 micrograms per ml; Ovalbumin-restimulated Balb/c spleen cells, 72 hours
Description: as §1

[6] = test system: Interleukin-5 (IL-5); assay: Th1/Th2 cytokine profiling assay, IL-5; type: cell-based, mouse; details: 10 micrograms per ml; Ovalbumin-restimulated Balb/c spleen cells, 72 hours
Description: as §1

[7] = test system: hepatitis B virus (HBV) ayw strain; assay: HBV experimental assay system, HepG2-2.2.15, TaqMan PCR of secreted HBV DNA; type: cell-based; details: 10 micrograms per ml; HepG2-2.2.15, six days, HBV DNA in supernatant
[8] = test system: HCMV strain AD169; assay: HCMV plaque formation assay in MRC-5 cells; type: cell-based; details: for inhibition of HCMV plaque formation as compared to the virus control experiment: 10 micrograms per ml, 7-10 days
[9] = test system: Human A549 cells; assay: Apoptosis prevention assay (Annexin-5, C2 ceramide); type: cell-based; details: 10 micrograms per ml; A549 pretreated 30 min, then C2 ceramide
[10] = test system: Primary Human endothelial cells (HUVEC); assay: Endothelial cell migration assay; type: cell-based; details: 10 micrograms per ml, 22 hours
Description: Thereafter, designated concentration of testing peptides—10 micrograms per ml—was added in duplicate wells.

Molecule | increase of the production of IL-2 in murine spleen cells [1] | increase of the tube formation of human endothelial cells [2] | change of the production of IL-4 in murine spleen cells [3] | change of the production of TNF-alpha in murine spleen cells [4] | decrease of the production of IFN-γ in murine spleen cells [5] | decrease of the production of IL-5 in murine spleen cells [6] | inhibition of HBV replication as compared to the virus control infection [7] | inhibition of HCMV plaque formation as compared to the virus control experiment [8] | effect on the ceramide-induced apoptosis on human lung cells [9] | inhibition of the migration of human endothelial cells [10] | antiviral activity of positive control compound ([8]; positive control, HCMV AD169)
Phe-Glu-Trp-Thr-Pro-Gly-Tyr-Trp-Gln-Pro-Tyr-Ala-Leu-Pro-Leu-OH (FEWTPGYWQPYALPL-OH) [Peptide 2] | 68.1% | 4% | did not significantly change | did not significantly change | 37.5% | 38.8% | 26.3% | did not inhibit | 28.6% |  | 
Leu-Val-Val-Tyr-Pro-Trp-Thr-Gln-Arg-OH (LVVYPWTQR-OH) [Peptide 1] | 54.3% | 2% | did not significantly change | did not significantly change | did not significantly change | 33% | 24.3% | did not inhibit | did not reduce | 4% | 
Nc1nc(O)c2ncn(COC(CO)CO)c2n1 [Ganciclovir, reference compound] |  |  |  |  |  |  |  |  |  |  | expected levels of antiviral activity
